In brackets after ≈: the same amount, converted by molar mass. Read-outs that look alike come from different tables or passages of the source.
What was measured:
[1] = tested on: MCF-7 human breast tumor cell line; assay: Inhibition of DNA synthesis ([^3 H] deoxythymidine incorporation), MCF-7; format: cell-based; conditions: for inhibition of DNA synthesis: MCF-7, pharmacologically relevant concentrations (FIG. 2)
Source text: (§1) Since a major use of analogues would be for the treatment of this disease, in vitro screening against human breast cancer cell lines was investigated. Two cell lines were investigated. […] The MCF-7 cell line retains estrogen receptor expression, has an absolute requirement for estrogen to form tumors in nude mice, responds to antiestrogen therapy and is more representative of tumors with a better prognosis.
(§2) The cytotoxic effects of Mitomycin-C are largely the result of its interactions with DNA. Consequently, the ability of Mitomycin-C and its analogues to inhibit the rate of incorporation of [^3 H] deoxythymidine into DNA was initially determined. Deoxythymidine is an essential precursor for the synthesis of DNA. The experiments were performed as described by Clarke et al., Br. J. Cancer 51: 365-369 (1985).

[2] = tested on: human breast cancer cell lines; assay: Conclusion over all four in vitro endpoints; format: cell-based
Source text: as §1, §2
(§3) The interpretation of the effects of cytotoxic drugs on the rate of cell proliferation is a more difficult endpoint to interpret. For example, a cytotoxic agent may apparently reduce the rate of cell growth by killing a proportion of the cells. Alternatively, all the cells in the population may be growth arrested but not killed. Both of these series of events could produce identical growth curves.
Consequently, the most accurate methods for determining cell kill measure the ability of a single cell to produce a clone of 50 or more cells (equivalent to six or more divisions). […]

MDA-MB-231 cells [3] = assay: Anchorage-dependent colony formation; format: cell-based, human
Source text: as §1
Consequently, the most accurate methods for determining cell kill measure the ability of a single cell to produce a clone of 50 or more cells (equivalent to six or more divisions). Two clonogenic assays were utilized. The anchorage-dependent assay provides the cells with a solid plastic substrate for attachment. The experiments were preformed as described by van den Berg et al. (1981), supra.

[4] = tested on: human breast cancer cell lines; format: cell-based; conditions: soft agar; for effect on anchorage-independent colony formation / cell survival: two assays (FIG. 5)
Source text: as §1
The anchorage-independent assay ensures that the cells grow in suspension in a soft agar solution. Thus, cells must retain both their basal reproductive integrity and their ability to grow in suspension. The data in FIG. 5 represents the results of two anchorage-independent colony formation assays. The assays were performed as described by Clarke et al., J. Endocrinol. 122: 331-340 (1989).

[5] = tested on: MDA-MB-231 human breast tumor cell line; assay: Inhibition of DNA synthesis ([^3 H] deoxythymidine incorporation), MDA-MB-231; format: cell-based; conditions: for inhibition of DNA synthesis: MDA-MB-231, pharmacologically relevant concentrations (FIG. 1)
Source text: as §1, §2

MDA-MB-231 cells [6] = assay: Inhibition of the rate of cell proliferation; format: cell-based, human; conditions: for effect on the rate of cell proliferation / cell population kinetics: MDA-MB-231 (FIG. 3)
Source text: as §1, §3

[7] = tested on: peripheral leukocyte (WBC); assay: In vivo murine WBC depression / bone marrow toxicity (Table 3); set-up: species or system normal CD2F1 male mice
Procedure: Blood samples obtained were diluted in 9.98 ml of Isoton (a neutral, isotonic buffer solution) and counted in a Coulter counter after lysis with Zapoglobin (an enzyme solution which lyses red blood cells, but not white blood cells). WBC counts are expressed as a percentage of values from control mice receiving drug vehicle only.

P388 leukemia [8] = assay: Murine P388 leukemia antitumor activity (Example 11, Table 2); format: in vivo, murine (CD2F1 male mice); conditions: for % ILS (percentage increased life span): Day 1, P388 leukemia; for Mean Survival: control 10.0
Procedure: The murine P388 leukemia system, maintained intraperitoneally in female DBA/2 mice, was used to evaluate antitumor activity.
The P388 antileukemic activity of the test compound was assessed by mean survival days and percentage increased life span (ILS). The % ILS was calculated as follows: […]
where T is the mean survival days of the treated mice and C is the mean survival days of the untreated mice.

[9] = tested on: Gram-negative strain of bacteria (HB101); assay: Antibacterial activity, agar dilution M.I.C. (Example 12, Table 4); format: cell-based; conditions: read-out: M.I.C. Gram-negative Bacteria
Procedure: Minimum inhibition concentration (M.I.C.) against a Gram-negative strain of bacteria (HB101) was estimated by the dilution method, with graded concentrations of drug added to agar at 37°-40° C. […] The agar, containing drug, quickly solidified at room temperature, and the bacteria were plated immediately.

bone marrow = conditions: preclinical and clinical studies; cited from earlier work
P388 leukemia [10] = assay: Murine P388 leukemia antitumor activity (Example 14, Table 5); format: in vivo, murine (CD2F1 male mice)
Source text: T is the mean survival days of mice receiving drug=treated mice
C is the mean survival days of the mice receiving drug vehicle.

P388 leukemia [11] = conditions: cited from earlier work
metastatic breast cancer = conditions: cited from earlier work
[12] = tested on: murine and human neoplasms; conditions: preclinical and clinical studies; cited from earlier work
[13] = Host toxicity (preliminary data); format: in vivo, mice; conditions: for mortality: mouse, in vivo, one ip injection, read-out: fatalities
Source text: Further, in vivo testing will be performed in two parts. Firstly, the host toxicity of the analogues in comparison with the parent drug will be tested. The concentration required to kill approximately 10% of a population of mice will then be determined. Histopathological analysis will determine the effect of drug treatment on tissues and organs. Analysis of white blood cell counts will provide information on hematopoietic toxicity. […] 80% and 100% fatalities were observed following one intraperitoneal injection of 30 and 40 mg/kg MC-77 respectively.

[14] = Weight loss resultant from drug toxicity (Example 14, Table 5)
Procedure: Each compound was administered intraperitoneally to groups of CD2F1 male mice on Day 1 following intraperitoneal implantation of 1×10^6 P388 leukemia cells.
Weight loss resultant from drug toxicity was also determined.

CO[C@@]12[C@H](COC(N)=O)C3=C(C(=O)C(C)=C(NCCCC(=O)N[C@@H]4O[C@H](COC(C)=O)[C@@H](OC(C)=O)[C@H](OC(C)=O)[C@H]4NC(C)=O)C3=O)N1C[C@@H]1N[C@@H]12 [MC-62, 7-{3-[(2-acetamido-3,4,6-tri-O-acetyl-β-D-glucopyranosyl)-amino]carbonylpropylamino}-9-methoxymitosane]
potency in inhibition of DNA synthesis relative to Mitomycin-C and MC-77 ([1]; MCF-7): significantly less potent than both Mitomycin-C and MC-77
antineoplastic potential (all four endpoints) [2]: significantly reduced antineoplastic potential
effect on anchorage-dependent colony formation (MDA-MB-231 cells [3]; MDA-MB-231 (FIG. 4)): did not significantly influence colony formation
effect on anchorage-independent colony formation / cell survival [4]: consistently fails to influence colony formation
potency in inhibition of DNA synthesis relative to Mitomycin-C and MC-77 ([5]; MDA-MB-231): significantly less potent than both Mitomycin-C and MC-77
effect on the rate of cell proliferation / cell population kinetics (MDA-MB-231 cells [6]): failed to markedly influence the rate of MDA-MB-231 growth

CO[C@@]12[C@H](COC(N)=O)C3=C(C(=O)C(C)=C(N[C@H]4C(O)O[C@H](CO)[C@@H](O)[C@@H]4O)C3=O)N1C[C@@H]1N[C@@H]12 (some centres unmarked) [N^7-(2-deoxyglucopyranosyl)mitomycin C]
WBC Count on Day 3 (as percent of control) ([7]; 13.5 mg/kg ip, normal CD2F1 male mice, Day 3): 94%
bone marrow toxicity as determined by depression of peripheral leukocyte (WBC) count ([7]; summary, at active doses): no significant bone marrow toxicity
% ILS (percentage increased life span) (P388 leukemia [8]; 5 mg/kg ip): 42%
Mean Survival (P388 leukemia [8]; 5 mg/kg ip): 14.2 days
% ILS (percentage increased life span) (P388 leukemia [8]; 13.5 mg/kg ip): 61%
Mean Survival (P388 leukemia [8]; 13.5 mg/kg ip): 16.1 days
activity against the murine P388 tumor system (P388 leukemia [8]; summary): significant activity against the murine P388 tumor system
MIC ([9]; 24 h): 1.66 to 3.3 µg/mL (≈ 3.34 to 6.65 µM)

CO[C@@]12[C@H](COC(N)=O)C3=C(C(=O)C(C)=C(N)C3=O)N1C[C@@H]1N[C@@H]12 [Mitomycin C, mitomycin C, reference compound]
bone marrow toxicity (bone marrow): severe, delayed bone marrow toxicity
inhibition of DNA synthesis [1]: significant and dose dependent inhibition of DNA synthesis
% ILS (P388 leukemia [10]; 5 mg/kg ip): 83
reduction in anchorage-dependent colony forming ability (MDA-MB-231 cells [3]; MDA-MB-231, 0.25 uM): significant reduction in colony forming ability
optimal single ip P388 therapeutic dose (P388 leukemia [11]): 4.5 to 5.5 mg/kg
effect on anchorage-independent colony formation / cell survival [4]: dose dependent reductions in cell survival
inhibition of DNA synthesis [5]: significant and dose dependent inhibition of DNA synthesis
effect on the rate of cell proliferation / cell population kinetics (MDA-MB-231 cells [6]): significantly inhibited the rate of cell proliferation
objective responses in patients (metastatic breast cancer): significant percentage of objective responses
activity against murine and human neoplasms [12]: activity against a variety of murine and human neoplasms
MIC ([9]; HB101, agar, 24 hours at 37° C.): 0.3 to 0.5 µg/mL (≈ 0.897 to 1.5 µM)

CO[C@@]12[C@H](COC(N)=O)C3=C(C(=O)C(C)=C(Nc4ccc(O[C@@H]5O[C@H](COC(C)=O)[C@@H](OC(C)=O)[C@H](OC(C)=O)[C@H]5OC(C)=O)cc4)C3=O)N1C[C@@H]1N[C@@H]12 [MC-77, 7-{[4-(2,3,4,6-tetra-O-acetyl-β-D-glucopyranosyl)oxyphenyl]amino}-9-methoxymitosane]
inhibition of DNA synthesis compared with the parent compound ([1]; MCF-7, equimolar concentrations, vs Mitomycin-C): two to five fold greater inhibition of DNA synthesis
inhibition of DNA synthesis [1]: significant and dose dependent inhibition of DNA synthesis
cytotoxic potential compared with the parent drug (all four endpoints) ([2]; vs Mitomycin-C): marked improvement in the cytotoxic potential of between two and five fold
reduction in anchorage-dependent colony forming ability (MDA-MB-231 cells [3]; MDA-MB-231, 0.25 uM): significant reduction in colony forming ability
inhibition of anchorage-dependent colony formation compared with Mitomycin-C (MDA-MB-231 cells [3]; MDA-MB-231, 0.25 uM, vs equimolar Mitomycin-C, estimated): approximately two to five fold greater
effect on anchorage-independent colony formation / cell survival [4]: dose dependent reductions in cell survival
cytotoxicity in anchorage-independent assay compared with Mitomycin-C ([4]; vs Mitomycin-C): two to five fold more cytotoxic
inhibition of DNA synthesis compared with the parent compound ([5]; MDA-MB-231, equimolar concentrations, vs Mitomycin-C): two to five fold greater inhibition of DNA synthesis
inhibition of DNA synthesis [5]: significant and dose dependent inhibition of DNA synthesis
fold less toxic than the parent drug ([13]; inconclusive preliminary data, vs Mitomycin-C): up to two fold less toxic than the parent drug
mortality ([13]; 30 mg/kg, preliminary, one experiment): 80%
mortality ([13]; 40 mg/kg, preliminary, one experiment): 100%
toxicity compared with Mitomycin-C ([13]; preliminary): no more toxic when compared with Mitomycin-C
dose response curve for toxicity ([13]; preliminary, one experiment): retained the steep dose response curve for toxicity
effect on the rate of cell proliferation / cell population kinetics (MDA-MB-231 cells [6]): significantly inhibited the rate of cell proliferation
cell number relative to starting cell number (MDA-MB-231 cells [6]; MDA-MB-231, 1.5 uM): reduced cell number below starting cell number

CO[C@@]12[C@H](COC(N)=O)C3=C(C(=O)C(C)=C(Nc4ccc(OP(=O)(O)O)cc4)C3=O)N1C[C@@H]1N[C@@H]12 [N^7-(4-phosphatophenyl)mitomycin C]
% ILS (P388 leukemia [10]; 15 mg/kg ip): 84
30-day survivor (P388 leukemia [10]; 30 mg/kg ip): 1/5
% ILS (P388 leukemia [10]; 30 mg/kg ip): > 150
weight loss ([14]; 15 mg/kg ip): No weight loss
Average weight loss ([14]; 30 mg/kg ip): 8%
body weight decrease for all mice ([14]; 45 mg/kg ip, by Day 6 post-drug injection): 20-24%
